Laboratory results from PMC11067750, “Biophysical and structural study of La Crosse virus endonuclease inhibition for the development of new antiviral options” (IUCrJ, 2024).
“And” between values parts separate entries of the source, which are not always exact repeats. Equal entries are not always repeated. Where two headings read alike, the source gives them in different places.

How the values were obtained:
[1] = molecular target: T1, LACV EndoN (Bunyavirus La Crosse, UniProt A5HC98); assay: Microscale thermophoresis (MST) binding affinity; parameters: species or system La Crosse virus; details: for Kd: Affinity K d, labelled protein 50 or 100 nM, 0.5 mM MnCl2, 5% DMSO, n = 3; for fold better affinity than DPBA: ratio of K d values versus DPBA
Target sequence in this assay (A5HC98 1-185): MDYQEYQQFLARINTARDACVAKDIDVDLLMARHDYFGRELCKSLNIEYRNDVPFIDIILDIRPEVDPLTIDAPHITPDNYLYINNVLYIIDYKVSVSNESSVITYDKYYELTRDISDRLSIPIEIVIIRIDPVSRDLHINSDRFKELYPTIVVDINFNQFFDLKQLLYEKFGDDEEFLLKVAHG

[2] = molecular target: T1, LACV EndoN; type: binding, La Crosse virus; details: for greater stabilization compared with DPBA: difference in ΔT m versus DPBA, with 0.5 mM MnCl2; for Stability ΔT m: 50 µM compound, 5 µM protein, baseline LACV EndoN in the presence of manganese (T m ≃ 56°C)
Protocol: The influence of compound binding on the stability of LACV EndoN was measured by a Thermofluor assay using a CFX Connect Bio-Rad real-time PCR machine at a protein concentration of 5 µM in a buffer consisting of 20 mM Tris–HCl pH 7.6, 150 mM NaCl, 2.5 mM β-mercaptoethanol supplemented with 0.5 mM freshly prepared MnCl2. The compound concentration was fixed at 50 µM (5% DMSO). In 96-well thin-walled PCR plates, 1 µl inhibitor was added to 17 µl buffer followed by the addition of 2 µl protein. Finally, 2 µl of the fluorescent dye SYPRO Orange (Thermo Fisher, catalog No. 4461146) was added (a fivefold final concentration). Controls were performed using the same protocol without MnCl2. The melting-temperature (T m) values given are the average and standard deviation of three independent experiments.
DSF is used to assess protein stabilization or destabilization upon the addition of cofactors by measuring the thermal stability (the thermal melting transition T m) arising from interaction with a fluorescent dye (SYPRO Orange) during denaturation.
(c) Structures of the studied ligands.
Target sequence in this assay (A5HC98 1-183): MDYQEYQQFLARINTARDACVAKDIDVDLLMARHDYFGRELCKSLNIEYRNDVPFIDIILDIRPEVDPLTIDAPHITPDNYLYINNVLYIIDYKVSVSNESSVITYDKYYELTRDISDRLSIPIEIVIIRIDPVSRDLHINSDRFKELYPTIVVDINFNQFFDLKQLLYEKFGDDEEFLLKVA

[3] = molecular target: T1, LACV EndoN; assay: In vitro endonuclease FRET assay; type: biochemical, La Crosse virus; details: for fold greater inhibition efficiency than DPBA: ratio of IC50 values versus DPBA
Protocol: An in vitro endonuclease assay was used to investigate the inhibition of LACV EndoN by DPBA, L-742,001 and baloxavir. The reaction was conducted using a 20 µl sample in 20 mM Tris pH 7.6, 150 mM NaCl, 0.01% Tween 20, 1 mM DTT and was supplemented with 1 mM freshly prepared MnCl2. The 19-mer RNA at a concentration of 50 nM and a gradient concentration of inhibitor (from 0.004 to 100 µM) were pre-incubated at 25°C in the reaction buffer. The reaction was started upon the addition of LACV EndoN (pre-mixed with 1 mM MnCl2 and pre-incubated at 25°C for 5 min) at a final concentration of 0.25 µM. Fluorescence upon RNA cleavage was followed in a PHERAstar FSX microplate reader (BMG Labtech, Germany) at 25°C using wavelengths of 465 nm for excitation and 520 nm for emission.
The inhibition efficacies of the three ligands were tested against LACV EndoN in an endonuclease FRET assay and the results are summarized in Table 2 ▸. This was performed following the cleavage of a 19-mer RNA labelled with a 5′ fluorescent probe (6-FAM) and a 3′ quencher (BHQ1) in the presence of a range of ligand concentrations upon the addition of 0.25 µM LACV EndoN. In this FRET inhibition assay, the order in which the three partners of the catalytic complex (protein, ions and substrate RNA) are introduced is decisive. The reaction is triggered by adding the protein pre-incubated with ions to a mixture containing substrate RNA, ions and ligand. The design of the assay may constitute a limitation to the complete assessment of the binding efficiency of baloxavir to the enzyme, given the competition between substrate RNA, free ions and ligand. As described for FLUV, baloxavir is a tight-binding inhibitor with slow dissociation and acts by preventing binding of the RNA substrate (Omoto et al., 2018[▸]; Todd et al., 2021[▸]). In the context of the current biochemical assay, the interplay between the RNA substrate and the ligand presents an unfavourable scenario for binding of the metal-chelating ligand. […] This unexpected uniformity of the inhibition values underscores the remarkable potency of these compounds in the face of a challenging biochemical landscape.
Target sequence in this assay (A5HC98 1-185): as the sequence (A5HC98 1-185) above

[4] = molecular target: FLUV PA-Nter; parameters: method as in DuBois et al., 2012; details: ref DuBois et al., 2012; cited from earlier work
[5] = molecular target: LCMV EndoN; details: ref Saez-Ayala et al., 2018, 2019; cited from earlier work

Compound | Kd [1] | fold better affinity than DPBA [1] | greater stabilization compared with DPBA [2] | IC50 [3] | fold greater inhibition efficiency than DPBA [3] | Stability ΔT m ([2]; 0.5 mM MnCl2) | Stability ΔT m ([2]; 0.5 mM MnCl2, listed as baloxavir) | T m increase upon addition of metal ions ([2]; 0.5 mM MnCl2, versus LACV EndoN without ions (T m of 49°C)) | Kd [4] | Kd [5]
O=C(O)/C(O)=C/C(=O)C1(Cc2ccc(Cl)cc2)CCN(Cc2ccccc2)CC1 [L-742,001, (Z)-4-{1-benzyl-4-[(4-chlorophenyl)methyl]-piperidin-4-yl}-2-hydroxy-4-oxobut-2-enoic acid] | 600 nM and 614 nM | twofold | +4 °C | 650 ± 30 nM | 1.5 fold |  |  |  |  | 
O=C1c2c(O)c(=O)ccn2N([C@@H]2c3ccccc3SCc3c2ccc(F)c3F)[C@@H]2COCCN12 [Baloxavir, (R)-12-((S)-7,8-Difluoro-6,11-dihydrodibenzo[b,e]thiepin-11-yl)-7-hydroxy-3,4,12,12a-tetrahydro-1H-[1,4]oxazino[3,4-c]pyrido[2,1-f][1,2,4]triazine-6,8-dione] | 19 ± 6 nM | 68 fold | +6 °C | 340 ± 20 nM | threefold | +12.72 ± 0.18 °C | ~13 °C |  |  | 
[Cl][Mn][Cl] [MnCl2] |  |  |  |  |  |  |  | ~7 °C |  | 
O=C(O)C(=O)CC(=O)c1ccccc1 [DPBA, 2,4-Dioxo-4-phenylbutanoic acid] | 1350 ± 250 nM |  |  | 990 ± 60 nM |  |  |  |  | 4500 nM | 5400 nM
